13 molecules from article PMC6072100, “Exploring the links between peptoid antibacterial activity and toxicity” (MedChemComm, 2017) can be followed below.

Molecules are shown by their SMILES. Square brackets hold non-standard residues; d marks the D form. Peptide text beside a SMILES is read from it. N(4-F-Bzl)Gly = O=C(O)CNCc1ccc(F)cc1; Gly(N-(CH2)6NH2) = NCCCCCCNCC(=O)O; Gly(N-2-aminoethyl) = NCCNCC(=O)O; Nspe = C[C@H](NCC(=O)O)c1ccccc1; NhArg = N=C(N)NCCCCNCC(=O)O; Nphe = O=C(O)CNCc1ccccc1; Nlys = NCCCCNCC(=O)O

Series [1] in a line: Skin cell toxicity assay with HaCaT (alamarBlue). In kind it is cell-based, human. As to conditions: human, HaCaT cells (keratinocytes). The method, boiled down:
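HaCaT cells seeded at 2x10^4 per well 24 hours before 1-hour exposure to a 2–100 µM triplicate dilution series in DMEM high glucose with 10% FBS at 37 °C, 5% CO2. Viability assessed with alamarBlue; ED50 defined as dose killing 50% of cells, derived from dose-response data.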
(In general: Alamar Blue is a resazurin reagent that responds to reducing activity.)

The nature of series [2]: Cytotoxicity assay with HepG2 (alamarBlue). As to conditions: human, HepG2 cells. In kind it is cell-based, human. The procedure: The activity of our peptoid library was assessed against both bacterial and mammalian cells to gain a broader understanding of the factors that lead to effective and selective antimicrobial peptoids. We screened for broad-spectrum antibacterial activity against Gram-negative (Escherichia coli and Pseudomonas aeruginosa) and Gram-positive (Staphylococcus aureus and S. epidermidis) bacteria. The toxicity of the library was also assessed against two mammalian cell lines; HaCaT spontaneously transformed aneuploid keratinocytes were employed to model toxicity against human skin cells and HepG2, a cell line derived from a human liver carcinoma, were used as a study on polarised human hepatocytes. Detailed methods for these assays can be found in the ESI. ^‡ […]
Please note – ED50, the median effective dose, was defined as the dose that kills 50% of cells.
Cytotoxicity analyses were performed in 96-well plates (Costar, Fisher Scientific) using alamarBlue® (Invitrogen) for cell viability detection using a modified protocol as described previously. HepG2 or HaCaT cells were subcultured at 37 °C, 5% CO2 in DMEM high glucose supplemented with heat-inactivated foetal bovine sera (FBS, 10%; Biosera Ltd) and penicillin/streptomycin (P/S, 1%). Cells were counted using a Neubauer Improved Haemocytometer. HepG2 cells were seeded 1 day prior to treatment in 96 well plates at a concentration of 2 × 10^5 cells per mL in 100 μL of medium (2 × 10^4 cells per well). Then cells were pre-incubated with the compounds in triplicate in a dilution series in triplicate from 2–100 μM (5 mM stock solutions in DMSO diluted from 100 μM to 3 μM; untreated cells with DMSO as a negative control) in 50 μl of the media for 1 hour. Afterwards, 40 μL were removed from each well before the addition of 90 μL of the media, followed by incubation for 24 hours at 37 °C, 5% CO2. Then, 10 μL of alamarBlue® (Invitrogen) was added to each well before a 2 hour incubation prior to assessing cell viability using a fluorescent plate reader (Biotek; Ex 560 nm/Em 600 nm). All data were measured in triplicate on a minimum of two occasions to ensure a robust data set was collected. The ED50 values were calculated from the dose response results achieved from the serial dilutions.
Cytotoxicity assay with HepG2
Cytotoxicity analyses were performed in 96-well plates (Costar, Fisher Scientific) using alamarBlue® (Invitrogen) for cell viability detection using a modified protocol as previously described. The HepG2 cells were grown at 37 °C, 5% CO2 in DMEM high glucose supplemented with heat-inactivated foetal bovine sera (FBS, 10%; Biosera Ltd) and penicillin/streptomycin (P/S, 1%). Cells were counted using a Neubauer Improved Haemocytometer. HepG2 cells were seeded 1 day prior to treatment in 96 well plates at a concentration of 2x10^5 cells/mL in 100 µL of medium (2x10^4 cells/well). Then cells were pre-incubated with the compounds in triplicate (5 mM stock solutions in DMSO diluted from 100 µM to 3 µM; untreated cells with DMSO as a negative control) in 50 µl of the media for 1 hour.
Afterwards, 40 µL were removed from each well before the addition of 90 µL of the media, followed by incubation for 24 hours at 37 °C, 5% CO2. Then, 10 µL of alamarBlue® (Invitrogen) was added to each well before a 2 hour incubation prior to assessing cell viability using a fluorescent plate reader (Biotek; Ex 560 nm / Em 600 nm). All data was measured in triplicate on a minimum of two occasions to ensure a robust data set was collected. The ED50 values were calculated from the dose response results achieved from the serial dilutions. […]
5% CO2 in DMEM high glucose supplemented with heat-inactivated foetal bovine sera (FBS, 10%; Biosera Ltd) and penicillin/streptomycin (P/S, 1%). Cells were counted using a Neubauer […]
Empty wells were filled with 100 µL PBS. After 24 hours, cells were incubated with the compounds in a dilution series in triplicate from 2 – 100 µM (5 mM stock solutions in DMSO […]

[3] abbreviates: dose that kills 50% of cells, 2–100 μM, 1 h with compound then 24 h, alamarBlue, read-out: ED50 HaCaT.
Setting [4] is: dose that kills 50% of cells, 2–100 μM, 1 h with compound then 24 h, alamarBlue, read-out: ED50 HepG2.

Consider `NCCCCNCC(=O)N(CC(=O)N(CC(=O)N(CCCCN)CC(=O)N(CC(=O)N(CC(=O)N(CCCCN)CC(=O)N(CC(=O)N(CC(=O)N(CCCCN)CC(=O)N(CC(=O)N(CC(N)=O)Cc1ccc(F)cc1)Cc1ccc(F)cc1)Cc1ccc(F)cc1)Cc1ccc(F)cc1)Cc1ccc(F)cc1)Cc1ccc(F)cc1)Cc1ccc(F)cc1)Cc1ccc(F)cc1` [Peptoid 22, (NLysNpfbNpfb)4] (H-[Nlys][N(4-F-Bzl)Gly][N(4-F-Bzl)Gly][Nlys][N(4-F-Bzl)Gly][N(4-F-Bzl)Gly][Nlys][N(4-F-Bzl)Gly][N(4-F-Bzl)Gly][Nlys][N(4-F-Bzl)Gly][N(4-F-Bzl)Gly]-NH2), for which the CC50 at 24 h is 46 µM in series [1] (ED50 HaCaT) and 30 µM in series [2] (ED50 HepG2).

On to `NCCNCC(=O)N(CC(=O)N(CC(=O)N(CCN)CC(=O)N(CC(=O)N(CC(=O)N(CCN)CC(=O)N(CC(=O)N(CC(N)=O)Cc1ccccc1)Cc1ccccc1)Cc1ccccc1)Cc1ccccc1)Cc1ccccc1)Cc1ccccc1` [Peptoid 8, (NaeNpheNphe)3] (H-[Gly(N-2-aminoethyl)][Nphe][Nphe][Gly(N-2-aminoethyl)][Nphe][Nphe][Gly(N-2-aminoethyl)][Nphe][Nphe]-NH2), for which the CC50 at 24 h in series [1] (ED50 HaCaT) and in series [2] (ED50 HepG2) was 100 µM throughout.

In the case of `C[C@@H](c1ccccc1)N(CC(N)=O)C(=O)CN(C(=O)CN(CCCCNC(=N)N)C(=O)CN(C(=O)CN(C(=O)CN(CCCCNC(=N)N)C(=O)CN(C(=O)CN(C(=O)CN(CCCCNC(=N)N)C(=O)CN(C(=O)CN(C(=O)CNCCCCNC(=N)N)[C@@H](C)c1ccccc1)[C@@H](C)c1ccccc1)[C@@H](C)c1ccccc1)[C@@H](C)c1ccccc1)[C@@H](C)c1ccccc1)[C@@H](C)c1ccccc1)[C@@H](C)c1ccccc1` [Peptoid 34, (NhArgNspeNspe)4] (H-[NhArg][Nspe][Nspe][NhArg][Nspe][Nspe][NhArg][Nspe][Nspe][NhArg][Nspe][Nspe]-NH2), the CC50 at 24 h in series [1] (ED50 HaCaT) was determined as 11 µM; in series [2] (ED50 HepG2), 12 µM.

Consider `NCCCCCCNCC(=O)N(CC(=O)N(CC(=O)N(CCCCCCN)CC(=O)N(CC(=O)N(CC(=O)N(CCCCCCN)CC(=O)N(CC(=O)N(CC(N)=O)Cc1ccccc1)Cc1ccccc1)Cc1ccccc1)Cc1ccccc1)Cc1ccccc1)Cc1ccccc1` [Peptoid 2, (NahNpheNphe)3] (H-[Gly(N-(CH2)6NH2)][Nphe][Nphe][Gly(N-(CH2)6NH2)][Nphe][Nphe][Gly(N-(CH2)6NH2)][Nphe][Nphe]-NH2), for which the CC50 at 24 h in series [1] (ED50 HaCaT) and in series [2] (ED50 HepG2) was 100 µM throughout.

As for `C[C@@H](c1ccccc1)N(CC(N)=O)C(=O)CN(C(=O)CN(CCCCN)C(=O)CN(C(=O)CN(C(=O)CN(CCCCN)C(=O)CN(C(=O)CN(C(=O)CNCCCCN)[C@@H](C)c1ccccc1)[C@@H](C)c1ccccc1)[C@@H](C)c1ccccc1)[C@@H](C)c1ccccc1)[C@@H](C)c1ccccc1` [Peptoid 14, (NLysNspeNspe)3] (H-[Nlys][Nspe][Nspe][Nlys][Nspe][Nspe][Nlys][Nspe][Nspe]-NH2), the CC50 at 24 h in series [1] (setting [3]) and in series [2] (setting [4]) was 100 µM in each case.

On to `C[C@@H](c1ccccc1)N(CC(N)=O)C(=O)CN(C(=O)CN(CCCCN)C(=O)CN(C(=O)CN(C(=O)CNCCCCN)[C@@H](C)c1ccccc1)[C@@H](C)c1ccccc1)[C@@H](C)c1ccccc1` [Peptoid 15, (NLysNspeNspe)2] (H-[Nlys][Nspe][Nspe][Nlys][Nspe][Nspe]-NH2), for which the CC50 at 24 h in series [1] (ED50 HaCaT) and in series [2] (ED50 HepG2) was 100 µM each time.

On to `C[C@@H](c1ccccc1)N(CC(N)=O)C(=O)CN(C(=O)CN(CCCCCCN)C(=O)CN(C(=O)CN(C(=O)CN(CCCCCCN)C(=O)CN(C(=O)CN(C(=O)CNCCCCCCN)[C@@H](C)c1ccccc1)[C@@H](C)c1ccccc1)[C@@H](C)c1ccccc1)[C@@H](C)c1ccccc1)[C@@H](C)c1ccccc1` [Peptoid 11, (NahNspeNspe)3] (H-[Gly(N-(CH2)6NH2)][Nspe][Nspe][Gly(N-(CH2)6NH2)][Nspe][Nspe][Gly(N-(CH2)6NH2)][Nspe][Nspe]-NH2), for which the CC50 at 24 h in series [1] (ED50 HaCaT) and in series [2] (ED50 HepG2) was 100 µM throughout.

`NCCCCNCC(=O)N(CC(=O)N(CC(=O)N(CCCCN)CC(=O)N(CC(=O)N(CC(=O)N(CCCCN)CC(=O)N(CC(=O)N(CC(N)=O)Cc1cccc(F)c1)Cc1cccc(F)c1)Cc1cccc(F)c1)Cc1cccc(F)c1)Cc1cccc(F)c1)Cc1cccc(F)c1` [Peptoid 25, (NLysNmfbNmfb)3]: the CC50 at 24 h in series [1] (ED50 HaCaT) came out at 64 µM; in series [2] (ED50 HepG2) it was 43 µM.

Regarding `COc1ccc(CN(CC(N)=O)C(=O)CN(Cc2ccc(OC)cc2)C(=O)CN(CCCCN)C(=O)CN(Cc2ccc(OC)cc2)C(=O)CN(Cc2ccc(OC)cc2)C(=O)CN(CCCCN)C(=O)CN(Cc2ccc(OC)cc2)C(=O)CN(Cc2ccc(OC)cc2)C(=O)CN(CCCCN)C(=O)CN(Cc2ccc(OC)cc2)C(=O)CN(Cc2ccc(OC)cc2)C(=O)CNCCCCN)cc1` [Peptoid 19, (NLysNpmbNpmb)4], the figures for the CC50 at 24 h in series [1] (ED50 HaCaT) and in series [2] (ED50 HepG2) were 41 µM and 100 µM, respectively.

Regarding `C[C@@H](c1ccccc1)N(CC(N)=O)C(=O)CN(Cc1ccc(F)cc1)C(=O)CN(CCCCN)C(=O)CN(C(=O)CN(Cc1ccc(F)cc1)C(=O)CN(CCCCN)C(=O)CN(C(=O)CN(Cc1ccc(F)cc1)C(=O)CNCCCCN)[C@@H](C)c1ccccc1)[C@@H](C)c1ccccc1` [Peptoid 27, (NLysNpfbNspe)3], the CC50 at 24 h in series [1] (setting [3]) is 52 µM; in series [2] (setting [4]), 36 µM.

For the molecule `CCCCCN(CC(=O)N(CC(=O)N(CC(=O)N(CCCCN)CC(=O)N(CC(=O)N(CC(N)=O)[C@@H](C)c1ccccc1)[C@@H](C)c1ccccc1)[C@@H](C)c1ccccc1)[C@@H](C)c1ccccc1)C(=O)CN(C(=O)CN(C(=O)CN(CCCCN)C(=O)CN(C(=O)CN(C(=O)CNCCCCN)[C@@H](C)c1ccccc1)[C@@H](C)c1ccccc1)[C@@H](C)c1ccccc1)[C@@H](C)c1ccccc1` [Peptoid 32, (NLysNspeNspe)2(NamyNspeNspe)(NLysNspeNspe)], the CC50 at 24 h was found to be 20 µM in series [1] (ED50 HaCaT) and 22 µM in series [2] (ED50 HepG2).

Regarding `NCCNCC(=O)N(CC(=O)N(CC(=O)N(CCN)CC(=O)N(CC(=O)N(CC(=O)N(CCN)CC(=O)N(CC(=O)N(CC(=O)N(CCN)CC(=O)N(CC(=O)N(CC(N)=O)Cc1ccccc1)Cc1ccccc1)Cc1ccccc1)Cc1ccccc1)Cc1ccccc1)Cc1ccccc1)Cc1ccccc1)Cc1ccccc1` [Peptoid 7, (NaeNpheNphe)4] (H-[Gly(N-2-aminoethyl)][Nphe][Nphe][Gly(N-2-aminoethyl)][Nphe][Nphe][Gly(N-2-aminoethyl)][Nphe][Nphe][Gly(N-2-aminoethyl)][Nphe][Nphe]-NH2), the CC50 at 24 h in series [1] (ED50 HaCaT) and in series [2] (ED50 HepG2) was 100 µM each time.

Take `C[C@@H](c1ccccc1)N(CC(N)=O)C(=O)CN(C(=O)CN(CCN)C(=O)CN(C(=O)CN(C(=O)CN(CCN)C(=O)CN(C(=O)CN(C(=O)CN(CCN)C(=O)CN(C(=O)CN(C(=O)CNCCN)[C@@H](C)c1ccccc1)[C@@H](C)c1ccccc1)[C@@H](C)c1ccccc1)[C@@H](C)c1ccccc1)[C@@H](C)c1ccccc1)[C@@H](C)c1ccccc1)[C@@H](C)c1ccccc1` [Peptoid 16, (NaeNspeNspe)4] (H-[Gly(N-2-aminoethyl)][Nspe][Nspe][Gly(N-2-aminoethyl)][Nspe][Nspe][Gly(N-2-aminoethyl)][Nspe][Nspe][Gly(N-2-aminoethyl)][Nspe][Nspe]-NH2): the CC50 at 24 h was 26 µM in series [1] (ED50 HaCaT) and 41 µM in series [2] (ED50 HepG2).
